These are literature values, as cited in US20130338095A1, “Chemosensory Receptor Ligand-Based Therapies” (ELCELYX THERAPEUTICS, INC., priority 2010, published 2013).

Test system in one data set: not given
The settings on record: bitter phytonutrients in common plant foods.
`CC1(C)O[C@H]2CC(=O)OC[C@]23[C@H]2CC[C@@](C)([C@@H](O[C@@H]4O[C@H](CO)[C@@H](O)[C@H](O)[C@H]4O)c4ccoc4)[C@@]4(O[C@@H]4C(=O)O)[C@]2(C)C(=O)C[C@@H]13` [Limonin glucoside]: the Taste quality entry is “Tasteless”. With `CC1(C)O[C@H]2CC(=O)OC[C@]23[C@H]2CC[C@@]4(C)[C@H](c5ccoc5)OC(=O)[C@H]5O[C@]54[C@]2(C)C(=O)C[C@@H]13` [Limonin], the Taste quality result was “Bitter”. On to `C[C@@H]1O[C@@H](O[C@H]2[C@H](Oc3cc(O)c4c(c3)O[C@H](c3ccc(O)cc3)CC4=O)O[C@H](CO)[C@@H](O)[C@@H]2O)[C@H](O)[C@H](O)[C@H]1O` [Naringin], for which the Taste quality entry was “Bitter”. Take `COc1ccc(-c2cc(=O)c3c(OC)c(OC)c(OC)c(OC)c3o2)cc1OC` [Nobiletin]: the Taste quality entry was “Bitter”. In the case of `CC(=O)O[C@H]1CC(=O)OC(C)(C)[C@@H]2CC(=O)[C@]3(C)[C@H](CC[C@@]4(C)[C@H](c5ccoc5)OC(=O)[C@H]5O[C@]543)[C@@]12C` [Nomilin], the Taste quality result was “Bitter”. As for `C=C[C@H](O)CC(=NOS(=O)(=O)O)S[C@@H]1O[C@H](CO)[C@@H](O)[C@H](O)[C@H]1O` [Progoitrin], the Taste quality entry is on record as “Bitter”. With `O=c1c(O)c(-c2ccc(O)c(O)c2)oc2cc(O)cc(O)c12` [Quercetin], the Taste quality entry is “Bitter”. On to `COc1ccc(-c2cc(=O)c3c(OC)c(OC)c(OC)cc3o2)cc1OC` [Sinensetin], for which the Taste quality result is “Bitter”. With `COc1ccc(-c2cc(=O)c3c(OC)c(OC)c(OC)c(OC)c3o2)cc1` [Tangeretin], the Taste quality result is reported as “Bitter”. Consider `O=c1c(-c2ccc(O)cc2)coc2cc(O)ccc12` [daidzein], for which the Taste quality result is on record as “Bitter or astringent”.

For a further data set, the system named is GLP-1. The settings on record: rats.
For `OCCN1C[C@H](O)[C@@H](O)[C@H](O)[C@H]1CO` [miglitol], the “increase in GLP-1 with administration of a DPP-IV inhibitor” value is “synergistic”.

Test system in a further data set: not given
The settings on record: patients with jejunostomy.
On to “GLP-2: gut hormone, glucagon-like peptide 2 (HADGSFSDEMNTILDNLAARDFINWLIQTKITD; Glucagon-like peptide 2; UniProt P01275 146-178, looked up)”, for which the “intestinal absorption of energy” value is reported as “improve” and the “intestinal wet weight absorption” value was “improve”.
